Assay [1] addresses T1, recombinantly expressed OR2AT4 (Homo sapiens, UniProt A6NND4).
T1 construct: expressed in transfected cells; host or cells: Hana3A cells, transient transfection with pcDNA3-OR2AT4 by the calcium phosphate method
T1 sequence (A6NND4 1-320): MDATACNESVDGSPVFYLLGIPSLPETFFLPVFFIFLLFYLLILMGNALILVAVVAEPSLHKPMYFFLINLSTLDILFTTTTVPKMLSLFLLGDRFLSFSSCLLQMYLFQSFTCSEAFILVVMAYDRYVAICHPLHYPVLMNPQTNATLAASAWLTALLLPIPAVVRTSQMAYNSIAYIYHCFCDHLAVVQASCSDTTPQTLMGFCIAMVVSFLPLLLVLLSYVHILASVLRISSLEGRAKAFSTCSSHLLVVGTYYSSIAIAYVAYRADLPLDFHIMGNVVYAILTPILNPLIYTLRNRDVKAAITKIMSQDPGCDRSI
Description: Calcium imaging of transiently OR2AT4-transfected Hana3A cells. The class given is cell-based. Conditions: for response rate of the Hana3A cells relative to the Ringer control: 1 mM odorant, 20 s stimulation, OR2AT4-transfected Hana3A cells; for agonist or antagonist to heterologously expressed OR2AT4: summary of calcium imaging and luciferase results. The method, then: Hana3A cells expressing stable endogenous olfactory transduction factors, which specifically target the incorporation of ORs into the cell membrane and thus improve activation capacity, were used as a heterologous expression system. Moreover, the 20 first N-terminal amino acids of rhodopsins (Rho-tag) were added before the N-terminus of the coding sequence of the OR, also in order to support heterologous expression.
A method established at the Department of Cell Physiology of Ruhr University Bochum for deorphanization studies is calcium imaging, in which activation of an OR by an odorant is visualized by a change in the intracellular calcium concentration of transfected cells using a fluorescent dye [cf. Wetzel et al. in: J. Neurosci. 19, pp. 7426-7433 (1999); Spehr et al. in: Science 299, pp. 2054-2058 (2003); Neuhaus et al. in: J. Biol. Chem. 284, pp. 16218-16225 (2009)]. In this method, the Hana3A cells are briefly (20 s) stimulated with an odorant and selected for odorant screenings of high concentrations (up to 1 mM) in order to confirm activation of ORs weakly expressed in Hana3A cells.
The activation of OR2AT4 by Sandalore® was first investigated by the calcium imaging method.
Odorants can not only activate a receptor, but can also act as antagonists to an OR.
Determination of receptive field of recombinantly expressed OR2AT4. […] As a control, untransfected Hana3A cells were simulated with Sandalore®. 100 μM of ATP was used at the end of each measurement as a positive control stimulus. […] The mean response rate including standard error of the cells is shown relative to the Ringer control. […] Isobornyl.: isobornyl cyclohexanol; S. öl: sandalwood oil. Kruskal-Wallis test with multiple comparison. *: p<0.05. […] Significance was determined between Hana3A cells transfected with OR2AT4-pcDNA3 and pcDNA3 without an insert. The dots show mean normalized luciferase-activity including standard error. Mann-Whitney U test; n=3 experiments. *: p<0.05; **: p<0.01; ***: p<0.001.
Antagonists of recombinantly expressed OR2AT4. […] 100 μM of ATP was used at the end of each measurement as a positive control stimulus. […] The mean response rate including standard error of the cells is shown relative to the Ringer control. Number of measurements: Ringer (23), Sandalore® (22), Sandalore®+dimetol (11), dimetol (11), Phenirat (14), Sandalore®+Phenirat (22), Oxyphenylon (12), and Sandalore®+Oxyphenylon (20). S: Sandalore®. Kruskal-Wallis test with multiple comparison. *: p<0.05.

Another assay deals with HaCaT cells. Description: In vitro wound scratch assay, HaCaT cells. The class given is cell-based, human. Conditions: for faster closing of the scratch: HaCaT cells, 500 μM, observed for two days. From the text: The MAP kinases p38 and ERK1/2 are often associated with increased proliferation and migration in epidermal wound healing. For this reason, in a further physiological experiment, the effect of Sandalore® on “wound healing” of a confluent cell layer of HaCaT cells or primary keratinocytes was investigated. For this purpose, the wound scratch assay was used, which is an established in vitro method for initial investigations of wound healing processes in keratinocytes.
In order to investigate the role of the OR2AT4 receptor in this effect, a test was conducted to determine whether the two antagonists Oxyphenylon and Phenirat could again reduce the “wound healing” increased by Sandalore®. For this purpose, Sandalore® was mixed with one of the antagonists each in the same ratio, and the effect on “wound healing” of the HaCaT cells was again observed for 48 hours. […] The two antagonists alone had no effect on the “wound healing” (FIG. 18d). The role of the MAP kinases p38 and ERK1/2 was investigated by means of specific inhibitors of the kinases. For p38 MAPK, the […] SB203580 was used, and for ERK1/2 MAPK, the […] U0126 was used. […] The two inhibitors alone had no effect on the wound healing (FIG. 18d).
Effect of Sandalore® stimulation on human keratinocytes in an in vitro “wound healing” assay. Investigation of the “wound healing rate” of A) primary keratinocytes and B) HaCaT cells by means of a wound scratch assay in the presence of Sandalore® (500 μM) or 0.1% DMSO as a control. Left: Transmitted light images of the “wound” observed at various times. The growth margin of the cells was surrounded in black. Scale: 200 μm. Right: Quantitative evaluation of the wound scratch assay. The areas of the wounds were measured and compared to the initial wound (0 h). Mean values including standard error. Mann-Whitney U test; n=4 experiments. *: p<0.05; ***: p<0.001. C) Wound scratch assay in the presence of Sandalore® (500 μM) and one of the antagonists Oxyphenylon (500 μM) or Phenirat (500 μM) respectively, the p38 MAPK inhibitor 5B203580 (10 μM), or the ERK1/2 MAPK inhibitor U0126 (10 μM). The measured wound areas of the treated cells (after 48-hour stimulation) were compared to the control (0.1% DMSO). Mean values including standard error. Kruskal-Wallis test with multiple comparison; n=3 experiments. *: p<0.05. D) Controls for the wound scratch assay with Oxyphenylon (500 μM), Phenirat (500 μM), 5B203580 (10 μM), or U0126 (10 μM) carried out under C). The measured wound areas of the treated cells were compared to the control (0.1% DMSO). Mean value included.

This is an account of results in patent publication US10835500B2, “Medicament for accelerated wound healing” (Symrise AG, priority 2014, dated 2020).

Take `CC1=CCC(CCC(C)CO)C1(C)C` (stereo not shown) [Brahmanol®]: in assay [1], the “response rate of the Hana3A cells relative to the Ringer control” value is reported as “increased response rate in calcium imaging experiments, although the increase was not significant” and the “agonist or antagonist to heterologously expressed OR2AT4” value (shortened to “agonist or antagonist to heterologously”) is on record as “agonists”. Also, the “agonist or antagonist to heterologously” value in assay [1] (listed as Brahmanol) is “only agonists”. Further, the “faster closing of the scratch” value in the assay on HaCaT cells worked out at 26%.
Turning to `CC(=O)CCc1ccc(O)cc1` [Oxyphenylon], in assay [1] (coapplication with Sandalore 1:1, 1 mM respectively), the “effect on Sandalore-induced calcium signals in coapplication” value was “significantly reduced”. In addition, in assay [1] (odorant alone, 1 mM), the “effect of the odorant alone on the Hana3A cells” value is recorded as “no effect”. In addition, the “agonist or antagonist to heterologously” value in assay [1] is given as “antagonists”. Also, the “Sandalore-increased wound healing on coincubation” value with HaCaT cells (HaCaT, 48 hours, Sandalore 500 μM + antagonist 500 μM or inhibitor 10 μM) is on record as “reduced “wound healing” to the normal level”. For the same molecule, in the assay on HaCaT cells (HaCaT, antagonist 500 μM or inhibitor 10 μM alone), the “effect of the substance alone on wound healing” value was “no effect”.
As for `CC1=CCC(CCC(C)C(C)O)C1(C)C` (stereo not shown) [Sandalore®], in assay [1], the “response rate of the Hana3A cells relative to the Ringer control” value is given as “significantly increased response rate” and the “agonist or antagonist to heterologously” value is listed as “agonists”. Besides, the “agonist or antagonist to heterologously” value in assay [1] (listed as Sandalore) is reported as “only agonists”. The “faster closing of the scratch” value with HaCaT cells worked out at 26%.
